Results published in US20070141158A1, “Amphiphilic heparin derivative formed by coupling a heparin with a bile acid” (ETHYPHARM, priority 2003, published 2007).

Assay: Incorporation (solubilization) of hydrophobic active ingredients into aqueous solution of heparin hydrophobized with cholic acid (HEP19CHO), dissolution method
Assay type: physicochemical
Details: for increase of quantity in solution: HEP19CHO (Cp=8.6 mg/ml) after 6 days of incorporation, versus water (FIG. 4)
Method: An example of a method of incorporation by direct dissolution is described below. 30 mg of hydrophobized heparin are introduced into a tube and 3 ml of distilled water are added thereto. After dissolution, a large excess of active ingredient (15 to 30 mg) is introduced into the mixture.
A phase of stirring the mixture obtained is carried out by means of a magnetic stirrer bar for several days. The mixture is then centrifuged and the supernatant is passed through a 0.45 μm filter. The quantity of active ingredient solubilized in the solutions of hydrophobized heparin may be determined by UV/visible spectroscopy or by HPLC.
The nonsolubilized active ingredient is removed after filtration of the solutions on a membrane having a porosity of 0.45 μm. The quantity of active ingredient in solution is then determined. Having determined the quantities solubilized in water and those dissolved in the hydrophobic domains, it is then possible to calculate a partition coefficient hydrophobic domains/water which is called Log P′ by analogy with Log P.
Indeed, the relative solubility of molecules between an oily phase and an aqueous phase is described by the partition coefficient P which represents the distribution of the molecules between two solvents, generally water and octanol. The use of its logarithm, log P, is often preferred. […] Likewise for Log P′ which expresses the ratio of the solubilities of the active agent in water and in the solution of hydrophobized heparin.
The incorporation of active ingredients was essentially carried out by the dissolution method. In this method, the compound to be incorporated is placed in solid form in a tube containing water or a colloidal solution of hydrophobized heparin, at the concentration Cp (mg/ml).
The mixing is performed with stirring at room temperature for various times. The compound to be incorporated remains at saturating concentration in the medium. At the end of the incorporation period, the tubes are subjected to a centrifugation step and the supernatants are filtered on 0.45 μm filters and assayed. Control solutions (water or nonhydrophobized heparin) are treated in the same manner.
The quantity of active ingredient incorporated into the various media is quantified by HPLC and/or by measuring the UV absorbance.
Thus, the incorporation is expressed in milligram of active ingredient per gram of polymer (mg/g P) or in micromole of active ingredient per gram of polymer (μmol/g P). This incorporation level is calculated by taking the ratio between the concentration of the active ingredient in solution and the concentration of the polymer. […] The difference in concentration of active ingredients in water and in a solution of hydrophobized heparin represents the quantity of active ingredient effectively present in hydrophobic micro-domains formed by the grouping together of cholic acid residues.

In the case of NC(=O)N1c2ccccc2C=Cc2ccccc21 [Carbamazepine], the “level of incorporation into the hydrophobic domains” value (HEP19CHO 8 mg/ml, after 3 days) is reported as 70 mg/g P, the “increase of quantity in solution” value is reported as “increased ten fold” and the “gain in solubility relative to water” value (HEP19CHO calcium salt, 8 mg/ml, after 3 days (FIG. 3)) is reported as “exceeds 500%”. For the same compound, the concentration of carbamazepine present in the hydrophobic domains (HEP19CHO solution 8 mg/ml, after 3 days, HEP19CHO solution minus aqueous phase) was 560 µg/mL and the “affinity for the hydrophobic domains (among the molecules tested)” value (HEP19CHO, Table 5 molecules) was “highest affinity for the hydrophobic domains”.

For CCC(C)n1ncn(-c2ccc(N3CCN(c4ccc(OCC5COC(Cn6cncn6)(c6ccc(Cl)cc6Cl)O5)cc4)CC3)cc2)c1=O (stereo not shown) [Itraconazole], the “increase of quantity in solution” value was greater than 2000 fold and the “times as soluble in a solution of hydrophobized heparin as in water” value (HEP19CHO solution versus water) was “more than 2000 times”.
